Assay results from PubChem BioAssay (NCI).
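Step 1: Grow cells in 96-well plates. Step 2: Expose to compound for 48 hours at 5 concentrations. Step 3: Interpolate endpoints linearly; if unreached, use highest concentration. TGI: concentration producing complete growth inhibition.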

Legend:
Assay in all cases: NCI anticancer screen, dose series, 48 h
NCI-H522 lung = system: NCI-H522 lung
SF-539 CNS = system: SF-539 CNS
NCI-H23 lung = system: NCI-H23 lung
RPMI-8226 leukemia = system: RPMI-8226 leukemia
EKVX NSCLC = system: EKVX NSCLC
SF-268 CNS = system: SF-268 CNS
MDA-MB-435 = system: MDA-MB-435
786-0 renal = system: 786-0 renal
U251 CNS = system: U251 CNS
NCI/ADR-RES ovarian = system: NCI/ADR-RES ovarian
MCF7 breast = system: MCF7 breast
MDA-N = system: MDA-N
OVCAR-4 ovarian = system: OVCAR-4 ovarian
M14 melanoma = system: M14 melanoma
UACC-257 melanoma = system: UACC-257 melanoma
MALME-3M melanoma = system: MALME-3M melanoma
SR leukemia = system: SR leukemia
A549 NSCLC = system: A549 NSCLC
IGROV1 ovarian = system: IGROV1 ovarian
UO-31 renal = system: UO-31 renal
HS 578T breast = system: HS 578T breast
SK-OV-3 ovarian = system: SK-OV-3 ovarian
ACHN renal = system: ACHN renal
SK-MEL-28 melanoma = system: SK-MEL-28 melanoma
RXF 393 renal = system: RXF 393 renal
HOP-92 NSCLC = system: HOP-92 NSCLC
SK-MEL-2 melanoma = system: SK-MEL-2 melanoma
SF-295 CNS = system: SF-295 CNS
LOX IMVI melanoma = system: LOX IMVI melanoma
SNB-19 CNS = system: SNB-19 CNS
OVCAR-3 ovarian = system: OVCAR-3 ovarian
MDA-MB-231 breast = system: MDA-MB-231 breast
HCT-116 colon = system: HCT-116 colon
COLO 205 colon = system: COLO 205 colon
A498 renal = system: A498 renal
CAKI-1 renal = system: CAKI-1 renal
SNB-75 CNS = system: SNB-75 CNS
HT29 colon = system: HT29 colon
SK-MEL-5 melanoma = system: SK-MEL-5 melanoma
BT-549 breast = system: BT-549 breast
OVCAR-5 ovarian = system: OVCAR-5 ovarian
SN12C renal = system: SN12C renal
HCT-15 colon = system: HCT-15 colon
TK-10 renal = system: TK-10 renal
HL-60(TB) leukemia = system: HL-60(TB) leukemia
K-562 leukemia = system: K-562 leukemia
KM12 colon = system: KM12 colon
MOLT-4 leukemia = system: MOLT-4 leukemia
PC-3 prostate = system: PC-3 prostate
UACC-62 melanoma = system: UACC-62 melanoma
DU-145 prostate = system: DU-145 prostate
T-47D breast = system: T-47D breast
HOP-62 NSCLC = system: HOP-62 NSCLC
OVCAR-8 ovarian = system: OVCAR-8 ovarian
NCI-H460 lung = system: NCI-H460 lung
SW-620 colon = system: SW-620 colon
CCRF-CEM leukemia = system: CCRF-CEM leukemia
NCI-H226 lung = system: NCI-H226 lung

Structure (SMILES): NC1(C(=O)O)CCCC1C(=O)O (stereo unspecified)
- TGI (NCI-H522 lung): > 100 µM
- TGI (SF-539 CNS): > 100 µM
- TGI (NCI-H23 lung): > 100 µM
- TGI (RPMI-8226 leukemia): > 100 µM
- TGI (EKVX NSCLC): > 100 µM
- TGI (SF-268 CNS): > 100 µM
- TGI (MDA-MB-435): > 100 µM
- TGI (786-0 renal): > 100 µM
- TGI (U251 CNS): > 100 µM
- TGI (NCI/ADR-RES ovarian): > 100 µM
- TGI (MCF7 breast): > 100 µM
- TGI (MDA-N): > 100 µM
- TGI (OVCAR-4 ovarian): > 100 µM
- TGI (M14 melanoma): > 100 µM
- TGI (UACC-257 melanoma): > 100 µM
- TGI (MALME-3M melanoma): > 100 µM
- TGI (SR leukemia): > 100 µM
- TGI (A549 NSCLC): > 100 µM
- TGI (IGROV1 ovarian): > 100 µM
- TGI (UO-31 renal): > 100 µM
- TGI (HS 578T breast): > 100 µM
- TGI (SK-OV-3 ovarian): > 100 µM
- TGI (ACHN renal): > 100 µM
- TGI (SK-MEL-28 melanoma): > 100 µM
- TGI (RXF 393 renal): > 100 µM
- TGI (HOP-92 NSCLC): > 100 µM
- TGI (SK-MEL-2 melanoma): > 100 µM
- TGI (SF-295 CNS): > 100 µM
- TGI (LOX IMVI melanoma): > 100 µM
- TGI (SNB-19 CNS): > 100 µM
- TGI (OVCAR-3 ovarian): > 100 µM
- TGI (MDA-MB-231 breast): > 100 µM
- TGI (HCT-116 colon): > 100 µM
- TGI (COLO 205 colon): > 100 µM
- TGI (A498 renal): > 100 µM
- TGI (CAKI-1 renal): > 100 µM
- TGI (SNB-75 CNS): > 100 µM
- TGI (HT29 colon): > 100 µM
- TGI (SK-MEL-5 melanoma): > 100 µM
- TGI (BT-549 breast): > 100 µM
- TGI (OVCAR-5 ovarian): > 100 µM
- TGI (SN12C renal): > 100 µM
- TGI (HCT-15 colon): > 100 µM
- TGI (TK-10 renal): > 100 µM
- TGI (HL-60(TB) leukemia): > 100 µM
- TGI (K-562 leukemia): > 100 µM
- TGI (KM12 colon): > 100 µM
- TGI (MOLT-4 leukemia): > 100 µM
- TGI (PC-3 prostate): > 100 µM
- TGI (UACC-62 melanoma): > 100 µM
- TGI (DU-145 prostate): > 100 µM
- TGI (T-47D breast): > 100 µM
- TGI (HOP-62 NSCLC): > 100 µM
- TGI (OVCAR-8 ovarian): > 100 µM
- TGI (NCI-H460 lung): > 100 µM
- TGI (SW-620 colon): > 100 µM
- TGI (CCRF-CEM leukemia): > 100 µM

Structure (SMILES): COc1cc(C=O)cc(/C=N/N=C/c2ccccc2O)c1O
- TGI (NCI-H522 lung): > 100 µM
- TGI (SF-539 CNS): 34.2 µM
- TGI (NCI-H23 lung): 54 µM
- TGI (RPMI-8226 leukemia): 45.3 µM
- TGI (SF-268 CNS): > 100 µM
- TGI (MDA-MB-435): > 100 µM
- TGI (786-0 renal): 50.6 µM
- TGI (U251 CNS): > 100 µM
- TGI (NCI/ADR-RES ovarian): > 100 µM
- TGI (MCF7 breast): > 100 µM
- TGI (MDA-N): > 100 µM
- TGI (OVCAR-4 ovarian): > 100 µM
- TGI (M14 melanoma): 56.8 µM
- TGI (UACC-257 melanoma): > 100 µM
- TGI (MALME-3M melanoma): 18.1 µM
- TGI (SR leukemia): 51.2 µM
- TGI (A549 NSCLC): > 100 µM
- TGI (IGROV1 ovarian): > 100 µM
- TGI (UO-31 renal): 99.1 µM
- TGI (HS 578T breast): 10.3 µM
- TGI (SK-OV-3 ovarian): 59.7 µM
- TGI (ACHN renal): 67.4 µM
- TGI (SK-MEL-28 melanoma): 73.8 µM
- TGI (RXF 393 renal): > 100 µM
- TGI (HOP-92 NSCLC): 39.8 µM
- TGI (SK-MEL-2 melanoma): 47 µM
- TGI (SF-295 CNS): 8.16 µM
- TGI (LOX IMVI melanoma): 54.5 µM
- TGI (SNB-19 CNS): > 100 µM
- TGI (OVCAR-3 ovarian): 65.9 µM
- TGI (MDA-MB-231 breast): 76.4 µM
- TGI (HCT-116 colon): 67.3 µM
- TGI (COLO 205 colon): 82.9 µM
- TGI (A498 renal): > 100 µM
- TGI (CAKI-1 renal): 49 µM
- TGI (HT29 colon): > 100 µM
- TGI (SK-MEL-5 melanoma): > 100 µM
- TGI (BT-549 breast): 52.6 µM
- TGI (SN12C renal): 64.4 µM
- TGI (HCT-15 colon): > 100 µM
- TGI (TK-10 renal): > 100 µM
- TGI (HL-60(TB) leukemia): 0.0201 µM
- TGI (KM12 colon): > 100 µM
- TGI (MOLT-4 leukemia): 2.05 µM
- TGI (PC-3 prostate): 85.9 µM
- TGI (UACC-62 melanoma): > 100 µM
- TGI (DU-145 prostate): > 100 µM
- TGI (T-47D breast): 28.2 µM
- TGI (HOP-62 NSCLC): > 100 µM
- TGI (NCI-H460 lung): > 100 µM
- TGI (SW-620 colon): > 100 µM
- TGI (CCRF-CEM leukemia): 70.3 µM
- TGI (NCI-H226 lung): 58.6 µM

Structure (SMILES): Cc1nc2cc([N+](=O)[O-])ccc2c(NCCCN(C)C)c1C
- TGI (NCI-H522 lung): 10.7 µM
- TGI (SF-539 CNS): 30 µM
- TGI (NCI-H23 lung): 15.4 µM
- TGI (RPMI-8226 leukemia): > 100 µM
- TGI (SF-268 CNS): > 100 µM
- TGI (MDA-MB-435): 31.1 µM
- TGI (786-0 renal): 30.9 µM
- TGI (U251 CNS): 63.5 µM
- TGI (NCI/ADR-RES ovarian): 39.9 µM
- TGI (MCF7 breast): 11 µM
- TGI (MDA-N): 28.2 µM
- TGI (OVCAR-4 ovarian): 11.1 µM
- TGI (M14 melanoma): 26.7 µM
- TGI (UACC-257 melanoma): 18.6 µM
- TGI (MALME-3M melanoma): 18.9 µM
- TGI (SR leukemia): > 100 µM
- TGI (A549 NSCLC): 32.2 µM
- TGI (IGROV1 ovarian): 11.9 µM
- TGI (UO-31 renal): 32.1 µM
- TGI (HS 578T breast): 75.7 µM
- TGI (SK-OV-3 ovarian): > 100 µM
- TGI (ACHN renal): 76.7 µM
- TGI (SK-MEL-28 melanoma): > 100 µM
- TGI (RXF 393 renal): 27.6 µM
- TGI (HOP-92 NSCLC): 8.09 µM
- TGI (SK-MEL-2 melanoma): 22.7 µM
- TGI (SF-295 CNS): 48.4 µM
- TGI (LOX IMVI melanoma): 36 µM
- TGI (OVCAR-3 ovarian): 33.7 µM
- TGI (MDA-MB-231 breast): 14.2 µM
- TGI (HCT-116 colon): 22.4 µM
- TGI (COLO 205 colon): 8.55 µM
- TGI (A498 renal): 30.5 µM
- TGI (CAKI-1 renal): 55.6 µM
- TGI (SNB-75 CNS): > 100 µM
- TGI (HT29 colon): 10.9 µM
- TGI (SK-MEL-5 melanoma): 21.7 µM
- TGI (BT-549 breast): 26.1 µM
- TGI (OVCAR-5 ovarian): 38.3 µM
- TGI (SN12C renal): 34.5 µM
- TGI (HCT-15 colon): 31.3 µM
- TGI (TK-10 renal): 67 µM
- TGI (HL-60(TB) leukemia): > 100 µM
- TGI (K-562 leukemia): > 100 µM
- TGI (KM12 colon): 26.6 µM
- TGI (MOLT-4 leukemia): 29.4 µM
- TGI (PC-3 prostate): 24.3 µM
- TGI (UACC-62 melanoma): 33.9 µM
- TGI (DU-145 prostate): 68.9 µM
- TGI (T-47D breast): 29 µM
- TGI (HOP-62 NSCLC): 28.2 µM
- TGI (OVCAR-8 ovarian): 35.1 µM
- TGI (NCI-H460 lung): 13.5 µM
- TGI (SW-620 colon): 24.7 µM
- TGI (CCRF-CEM leukemia): > 100 µM
- TGI (NCI-H226 lung): 25.9 µM
